Where a name gives a salt, the structure may show the parent alone.

This assay deals with Jurkat HIV-luciferase clones. In words: Jurkat latency reversal assay. Type of assay: cell-based. To be noted: Homo sapiens, Jurkat, 48 h. As for the experimental part:
Jurkat HIV-luciferase clones were maintained in RPMI medium 1640 (Gibco by Life Technologies) containing 10% (vol/vol) fetal bovine serum (SAFC/Sigma-Aldrich) and 25 units/mL penicillin, 25 units/mL streptomycin (Gibco by Life Technologies), and were split 1:4 every 3 to 4 days to maintain a cell density of ˜0.3 to 1 million cells/mL. The Jurkat clones were maintained with the addition of 500 nM EFV in the medium. Three Jurkat cell clones (C16, I15, and N6), each harboring one or two integrated HIV proviruses expressing the luciferase reporter gene, were added at equal amounts for a total of 5,000 cells per well to 384-well plates containing compound titrations. Dose-response testing was performed on compounds dissolved in dimethyl sulfoxide (DMSO, Fisher Scientific, Merelbeke, Belgium) dispensed in duplicate serial 3-fold, 14-point titrations using a D300e Digital Droplet Dispenser (Hewlett-Packard) to give final assay concentrations of 10 μM to 2.1 pM in 50 μL of medium at 0.5% DMSO (vol/vol) final concentration. Cells and compound were incubated at 37° C. for 48 hours, unless otherwise indicated, followed by the addition of 20 μL of Steady-Glo® Luciferase (Promega). Luminescence resulting from the induction of the virally expressed luciferase was measured using an EnVision 2102 Multilabel Plate Reader (Perkin Elmer). Dose-response relationships were analyzed with GraphPad PRISM 6 using a four-parameter logistic regression model to calculate the concentration of compound that gives half-maximal response (EC50) and the maximal percent activation compared to the vehicle control.
Usually EC50 stands for the concentration at which the effect is half-maximal. Take `CN[C@@H](C)C(=S)N[C@H]1CCS[C@H]2CC(C)(C)[C@@H](C(=O)NC3c4ccccc4CC[C@H]3C(=O)N3CCN(C(=O)[C@@H]4CCc5ccccc5C4NC(=O)[C@H]4N5C(=O)[C@@H](NC(=S)[C@H](C)NC)CCS[C@H]5CC4(C)C)CC3)N2C1=O` (stereo in doubt) [compound 8, (4S,4′S,7S,7′S,9aS,9a′S)-N,N′-((1R,1′R,2R,2′R)-(piperazine-1,4-dicarbonyl)bis(1,2,3,4-tetrahydronaphthalene-2,1-diyl))bis(8,8-dimethyl-4-((S)-2-(methylamino)propanethioamido)-5-oxooctahydropyrrolo[2,1-b][1,3]thiazepine-7-carboxamide) dihydrochloride]: the EC50 was determined as 2.4 nM.
The result for `CN[C@@H](C)C(=O)NC1CCS[C@H]2CC(C)(C)[C@@H](C(=O)N[C@H]3c4ccccc4CC[C@H]3C(=O)NCc3ccc(CNC(=O)[C@@H]4CCc5ccccc5C4NC(=O)[C@H]4N5C(=O)[C@@H](NC(=O)[C@H](C)NC)CCS[C@H]5CC4(C)C)cc3)N2C1=O` (stereo in doubt) [compound 9, (4S,4′S,7S,7′S,9aS,9a′S)-N,N′-((1R,1′R,2R,2′R)-(((1,4-phenylenebis(methylene))bis(azanediyl))bis(carbonyl))bis(1,2,3,4-tetrahydronaphthalene-2,1-diyl))bis(8,8-dimethyl-4-((S)-2-(methylamino)propanamido)-5-oxooctahydropyrrolo[2,1-b][1,3]thiazepine-7-carboxamide) dihydrochloride] reads 90.3 nM; that for `CN[C@@H](C)C(=S)NC1CCS[C@H]2CC(C)(C)[C@@H](C(=O)N[C@H]3c4ccccc4CC[C@H]3C(=O)NCc3ccc(CNC(=O)[C@@H]4CCc5ccccc5C4NC(=O)[C@H]4N5C(=O)[C@@H](NC(=S)[C@H](C)NC)CCS[C@H]5CC4(C)C)cc3)N2C1=O` (stereo in doubt) [compound 10, (4S,4′S,7S,7′S,9aS,9a′S)-N,N′-((1R,1′R,2R,2′R)-(((1,4-phenylenebis(methylene))bis(azanediyl))bis(carbonyl))bis(1,2,3,4-tetrahydronaphthalene-2,1-diyl))bis(8,8-dimethyl-4-((S)-2-(methylamino)propanethioamido)-5-oxooctahydropyrrolo[2,1-b][1,3]thiazepine-7-carboxamide)], 43.4 nM; that for `CN[C@@H](C)C(=O)N[C@H]1CCS[C@H]2CC(C)(C)[C@@H](C(=O)Nc3ccc(Cc4ccc(NC(=O)[C@H]5N6C(=O)[C@@H](NC(=O)[C@H](C)NC)CCS[C@H]6CC5(C)C)cc4)cc3)N2C1=O` [compound 1, (4S,4′S,7S,7′S,9aS,9a′S)-N,N′-(methylenebis(4,1-phenylene))bis(8,8-dimethyl-4-((S)-2-(methylamino)propanamido)-5-oxooctahydropyrrolo[2,1-b][1,3]thiazepine-7-carboxamide)], 47 nM.
With `CN[C@@H](C)C(=O)N[C@H]1CCS[C@H]2CC(C)(C)[C@@H](C(=O)Nc3ccccc3CCc3ccccc3NC(=O)[C@H]3N4C(=O)[C@@H](NC(=O)[C@H](C)NC)CCS[C@H]4CC3(C)C)N2C1=O` [compound 3, (4S,4′S,7S,7′S,9aS,9a′S)-N,N′-(ethane-1,2-diylbis(2,1-phenylene))bis(8,8-dimethyl-4-((S)-2-(methylamino)propanamido)-5-oxooctahydropyrrolo[2,1-b][1,3]thiazepine-7-carboxamide) dihydrochloride] the figure was 80.5 nM; with `CN[C@@H](C)C(=O)N[C@H]1CCS[C@H]2CC(C)(C)[C@@H](C(=O)Nc3ccc(CCc4ccc(NC(=O)[C@H]5N6C(=O)[C@@H](NC(=O)[C@H](C)NC)CCS[C@H]6CC5(C)C)cc4)cc3)N2C1=O` [compound 5, (4S,4′S,7S,7′S,9aS,9a′S)-N,N′-(ethane-1,2-diylbis(4,1-phenylene))bis(8,8-dimethyl-4-((S)-2-(methylamino)propanamido)-5-oxooctahydropyrrolo[2,1-b][1,3]thiazepine-7-carboxamide) ditrifluoroacetate], 53.6 nM; with `CN[C@@H](C)C(=S)N[C@H]1CCS[C@H]2CC(C)(C)[C@@H](C(=O)N[C@H]3c4ccccc4C[C@H]3OCC#CC#CCO[C@@H]3Cc4ccccc4[C@@H]3NC(=O)[C@H]3N4C(=O)[C@@H](NC(=S)[C@H](C)NC)CCS[C@H]4CC3(C)C)N2C1=O` [compound 15, (4S,4′S,7S,7′S,9aS,9a′S)-N,N′-((1S,1′S,2R,2′R)-(hexa-2,4-diyne-1,6-diylbis(oxy))bis(2,3-dihydro-1H-indene-2,1-diyl))bis(8,8-dimethyl-4-((S)-2-(methylamino)propanethioamido)-5-oxooctahydropyrrolo[2,1-b][1,3]thiazepine-7-carboxamide)], 15.3 nM.
As for `CN[C@@H](C)C(=O)N[C@H]1CCS[C@H]2CC(C)(C)[C@@H](C(=O)N[C@H]3c4ccccc4C[C@H]3OCCCCO[C@@H]3Cc4ccccc4[C@@H]3NC(=O)[C@H]3N4C(=O)[C@@H](NC(=O)[C@H](C)NC)CCS[C@H]4CC3(C)C)N2C1=O` [compound 16, (4S,4′S,7S,7′S,9aS,9a′S)-N,N′-((1S,1′S,2R,2′R)-(butane-1,4-diylbis(oxy))bis(2,3-dihydro-1H-indene-2,1-diyl))bis(8,8-dimethyl-4-((S)-2-(methylamino)propanamido)-5-oxooctahydropyrrolo[2,1-b][1,3]thiazepine-7-carboxamide)], the EC50 was determined as 10.1 nM.
Regarding `CN[C@@H](C)C(=S)N[C@H]1CCS[C@H]2CC(C)(C)[C@@H](C(=O)N[C@H]3c4ccccc4C[C@H]3OCCCCO[C@@H]3Cc4ccccc4[C@@H]3NC(=O)[C@H]3N4C(=O)[C@@H](NC(=S)[C@H](C)NC)CCS[C@H]4CC3(C)C)N2C1=O` [compound 17, (4S,4′S,7S,7′S,9aS,9a′S)-N,N′-((1S,1′S,2R,2′R)-(butane-1,4-diylbis(oxy))bis(2,3-dihydro-1H-indene-2,1-diyl))bis(8,8-dimethyl-4-((S)-2-(methylamino)propanethioamido)-5-oxooctahydropyrrolo[2,1-b][1,3]thiazepine-7-carboxamide) dihydrochloride], the EC50 amounted to 20.7 nM.
For `CN[C@@H](C)C(=O)N[C@H]1CCS[C@H]2CC(C)(C)[C@@H](C(=O)N[C@H]3c4ccccc4C[C@H]3OCCOCCO[C@@H]3Cc4ccccc4[C@@H]3NC(=O)[C@H]3N4C(=O)[C@@H](NC(=O)[C@H](C)NC)CCS[C@H]4CC3(C)C)N2C1=O` [compound 18, (4S,4′S,7S,7′S,9aS,9a′S)-N,N′-((1S,1′S,2R,2′R)-((oxybis(ethane-2,1-diyl))bis(oxy))bis(2,3-dihydro-1H-indene-2,1-diyl))bis(8,8-dimethyl-4-((S)-2-(methylamino)propanamido)-5-oxooctahydropyrrolo[2,1-b][1,3]thiazepine-7-carboxamide) dihydrochloride], the EC50 came out at 22.3 nM.
With `CN[C@@H](C)C(=S)N[C@H]1CCS[C@H]2CC(C)(C)[C@@H](C(=O)N[C@H]3c4ccccc4C[C@H]3OCCOCCO[C@@H]3Cc4ccccc4[C@@H]3NC(=O)[C@H]3N4C(=O)[C@@H](NC(=S)[C@H](C)NC)CCS[C@H]4CC3(C)C)N2C1=O` [compound 19, (4S,4′S,7S,7′S,9aS,9a′S)-N,N′-((1S,1′S,2R,2′R)-((oxybis(ethane-2,1-diyl))bis(oxy))bis(2,3-dihydro-1H-indene-2,1-diyl))bis(8,8-dimethyl-4-((S)-2-(methylamino)propanethioamido)-5-oxooctahydropyrrolo[2,1-b][1,3]thiazepine-7-carboxamide) dihydrochloride], the EC50 amounted to 9.4 nM.

Values taken from patent US11492361B2, “Compounds useful in HIV therapy” (GlaxoSmithKline Intellectual Property Development Limited, priority 2018, dated 2022).
